We go through ten molecules from patent US10981932B2, “Macrocyclic indole derivatives” (Bayer Aktiengesellschaft, priority 2016, dated 2021).

Bounds are passed on as bounds.

Usually EC50 stands for the concentration at which the effect is half-maximal. Low readings indicate higher potency in that assay, high ones lower potency in that assay.

The target of one test is MCL-1 (Homo sapiens, UniProt Q07820). Put plainly: Protein-protein interaction assay MCL-1/Noxa BH3 peptide (MCL-1 assay), TR-FRET. Particulars: MBP-MCL-1 / Noxa BH3-derived peptide, median. In kind it is binding. The method in brief: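 Inhibition values were normalized between DMSO controls with all reagents and controls lacking MCL-1. The binding competition used 1 nM MBP-MCL-1 in pH 7 Tris buffer containing 50 mM KF and 100 mM NaCl, with a 10 min compound preincubation at 22 °C.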
Chain of MCL-1 (Q07820 whole entry): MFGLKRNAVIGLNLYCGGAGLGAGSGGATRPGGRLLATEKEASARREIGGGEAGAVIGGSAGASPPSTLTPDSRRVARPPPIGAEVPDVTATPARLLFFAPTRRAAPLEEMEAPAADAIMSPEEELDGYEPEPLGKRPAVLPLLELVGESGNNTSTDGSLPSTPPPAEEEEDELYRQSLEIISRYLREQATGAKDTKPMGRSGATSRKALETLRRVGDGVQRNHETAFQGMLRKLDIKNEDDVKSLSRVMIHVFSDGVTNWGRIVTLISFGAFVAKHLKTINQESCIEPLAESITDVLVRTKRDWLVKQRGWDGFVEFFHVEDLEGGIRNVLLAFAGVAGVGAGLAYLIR
Background: Time-resolved FRET reads energy transfer from a long-lived donor to a nearby acceptor.

Test [1] concerns SUDHL10. As to the kind of experiment: Induction of caspase-3/7 activity (Caspase-Glo 3/7), SUDHL10. Particulars: Homo sapiens, SU-DHL10, 3 h, caspase-3/7 induction, SUDHL10 cells, 3 h treatment; median. In kind it is cell-based. The method in brief: (§1)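 Apoptosis induction measured as caspase-3/7 activity (Caspase-Glo 3/7) in DLBCL lines after 3 h treatment at 37 °C; EC50 derived relative to the reference compound's maximal induction, with C0 fixed at 1.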

The test system of test [2] is SUDHL10. As to the kind of experiment: Induction of cytotoxicity (CellTiter-Glo, 5 h), SUDHL10. Particulars: Homo sapiens, SU-DHL10, 5 h, read-out: Cytotox SUDHL10 [M] (median), SUDHL10 cells, cytotoxicity induction, CellTiter-Glo, 5 h incubation, median.
The subject of test [3] is SUDHL10. Put plainly: Anti-proliferative effect (CellTiter-Glo, 72 h), SUDHL10. In kind it is cell-based. To be noted: Homo sapiens, SU-DHL10, 72 h, SUDHL10 cells, antiproliferation, 72 h incubation, median, read-out: Antiproli SUDHL10 [M] (median). In outline:
(§2)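 Luminescence from CellTiter-Glo, read 10 min after reagent addition, reports viable cell content after 72 h of compound treatment at 37 °C. A reference plate read at day 0 gives the starting baseline.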
In general terms: Cellular ATP, detected with luciferase, serves as a proxy for viable cell number.

Test [4] relates to SUDHL5. As to the kind of experiment: Induction of caspase-3/7 activity (Caspase-Glo 3/7), SUDHL5. Format: cell-based. To be noted: Homo sapiens, SU-DHL-5, 3 h, caspase-3/7 induction, SUDHL5 cells, 3 h treatment; median. The method in brief: as §1
Test [5] has as its system SUDHL5. As to the kind of experiment: Induction of cytotoxicity (CellTiter-Glo, 5 h), SUDHL5. To be noted: Homo sapiens, SU-DHL-5, 5 h, read-out: Cytotox SUDHL5 [M] (median), SUDHL5 cells, cytotoxicity induction, CellTiter-Glo, 5 h incubation, median.
A further test deals with OPM2. As to the kind of experiment: Anti-proliferative effect (CellTiter-Glo, 72 h), OPM2. Particulars: Homo sapiens, OPM-2, 72 h, OPM2 cells, median, read-out: IC50 antiproliferation assay OPM2 [M] (median). In kind it is cell-based. As for the experimental part: Assessment of the Anti-Proliferative Effect of Compounds in Different Cell Lines
The impact of compounds on the proliferation of different cell lines was assessed using the CellTiter-Glo® Luminescent Cell Viability reagent from Promega (G7573). Of note, SUDHL10 and SUDHL5 (DLBCL), NCI-H929 (Multiple Myeloma), A2780 (ovarian carcinoma) as well as MV-4-11(AML) cells are sensitive to MCL-1 inhibition.
In parallel, cells were plated in a reference (day 0) plate for time zero determination.
Rim wells were excluded. The cells were incubated for 72 h hours in a humidified incubator at 37° C. The day 0 plate was measured by adding 30 μl/well of CTG solution (CellTiter-Glo® Luminescent Cell Viability reagent, Promega G7573) to time zero wells in the reference plate followed by a 10 minutes incubation and luminescence reading at 0.1 ms, using the PHERAstar FS microplate reader (BMG Labtech).
After 72 h incubation, the treated plates were measured in the same way as the day 0 plate mentioned above.

The test system of another test is A2780. Put plainly: Anti-proliferative effect (CellTiter-Glo, 72 h), A2780. In kind it is cell-based. To be noted: Homo sapiens, A2780, 72 h, A2780 cells, median, read-out: IC50 antiproliferation assay A2780 [M] (median). The method in brief:
as §2

Take `CC(C)OCc1nn(C)c2c1-c1cccc3c(CCCOc4cccc5ccccc45)c(C(=O)O)n(c13)CCCN(C)C2` (racemic) [Example 1-70, (rac)-7,9-dimethyl-1-[3-(naphthalen-1-yloxy)propyl]-11-[(propan-2-yloxy)methyl]-4,5,6,7,8,9-hexahydropyrazolo[3′,4′:78][1,5]diazecino[9,10,1-hi]indole-2-carboxylic Acid]: the IC50 against MCL-1 is 0.02 µM; in the test on SUDHL10 [2], 2.78e-05 M; in the test with SUDHL10 [3], 1.31e-05 M; in the test with SUDHL5 [5], over 3.3e-05 M; in the test with OPM2 it was 1.22e-05 M; in the test with A2780 it was 1.82e-05 M. In addition, the EC50 in the test with SUDHL10 [1] and in the test on SUDHL5 [4] was over 33 µM in each case.

Turning to `Cc1nn(C)c2c1-c1cccc3c(CCCOc4cccc5ccccc45)c(C(=O)O)n(c13)CCN(c1ccccc1)C2` (racemic) [Example 1-101, (rac)-8,10-Dimethyl-1-[3-(1-naphthyloxy)propyl]-6-phenyl-5,6,7,8-tetrahydro-4H-pyrazolo[3′,4′:6,7][1,4]diazonino[8,9,1-hi]indole-2-carboxylic Acid], the IC50 at MCL-1 was 0.319 µM; in the test on SUDHL10 [2] it was over 3.3e-05 M; in the test with SUDHL10 [3], 1.05e-05 M; in the test with SUDHL5 [5] it was over 3.3e-05 M; in the test on OPM2 it was over 3.3e-05 M; in the test with A2780, 1.97e-05 M. Also, the EC50 in the test on SUDHL10 [1] and in the test on SUDHL5 [4] was over 33 µM throughout.

On to `COc1cc2cc(c1)-c1cccc3c(CCCOc4cccc5c4CCCC5)c(C(=O)O)n(c13)CCOCCO2` (racemic) [Example 1-118, (rac)-12-Methoxy-1-[3-(5,6,7,8-tetrahydronaphthalen-1-yloxy)propyl]-4,57,8-tetrahydro-10,14-(metheno)[1,4,7]dioxazacyclotetradecino[9,8,7-hi]indole-2-carboxylic Acid], for which the IC50 at MCL-1 was 2.18 µM; with SUDHL10 [2] it was over 3.3e-05 M; in the test with SUDHL10 [3], 2.2e-05 M; in the test with SUDHL5 [5] it was over 3.3e-05 M; with OPM2, over 3.3e-05 M; with A2780, 3.25e-05 M. Also, the concentration for a half-maximal effect (EC50) in the test with SUDHL10 [1] and with SUDHL5 [4] was over 33 µM throughout.

Turning to `COc1cc2cc(c1)-c1cccc3c(CCCOc4cccc5ccccc45)c(C(=O)O)n(c13)CCOCCO2` (racemic) [Example 1-119, (rac)-12-Methoxy-1-[3-(1-naphthyloxy)propyl]-4,5,7,8-tetrahydro-10,14-(metheno)[1,4,7]dioxazacyclotetradecino[9,8,7-hi]indole-2-carboxylic Acid], the IC50 is 2.31 µM against MCL-1; over 3.3e-05 M with SUDHL10 [2]; over 3.3e-05 M in the test with SUDHL10 [3]; over 3.3e-05 M in the test with SUDHL5 [5]; over 3.3e-05 M with OPM2; over 3.3e-05 M in the test on A2780. The half-maximal effective concentration (EC50) in the test with SUDHL10 [1] and in the test with SUDHL5 [4] was over 33 µM each time.

As to `Cn1nc(COc2ccc(N3CCN(CC(=O)O)CC3)cc2)c2c1COCCCCn1c(C(=O)O)c(CCCOc3cccc4ccccc34)c3cccc-2c31` (racemic) [Example 1-120, (rac)-3-({4-[4-(Carboxymethy)piperazin-1-yl]phenoxy}methyl)-1-methyl-7-[3-(naphthalen-1-yloxy)propyl]-1,10,11,12,13,15-hexahydropyrazolo[4′,3′:9,10][1,6]oxazacycloundecino[8,7,6-hi]indole-8-carboxylic Acid], the IC50 against MCL-1 was 0.00466 µM; with SUDHL10 [2] it was over 3.3e-05 M; with SUDHL10 [3], over 3.3e-05 M; in the test with SUDHL5 [5], over 3.3e-05 M; in the test on OPM2 it was over 3.3e-05 M; in the test on A2780 it was over 3.3e-05 M. Besides, the EC50 in the test with SUDHL10 [1] and in the test with SUDHL5 [4] was over 33 µM in each case.

As to `COc1cc2cc(c1)-c1cccc3c(CCCOc4cccc5ccccc45)c(C(=O)O)n(c13)CCCCCO2` (racemic) [Example 1-122, (rac)-12-Methoxy-1-[3-(naphthalen-1-yloxy)propyl]-5,6,7,8-tetrahydro-4H-10,14-(metheno)[1,7]oxazacyclotetradecino[9,8,7-hi]indole-2-carboxylic Acid], the IC50 at MCL-1 is 6.88 µM; in the test on SUDHL10 [2], over 3.3e-05 M; in the test with SUDHL10 [3], over 3.3e-05 M; in the test with SUDHL5 [5], over 3.3e-05 M; in the test on OPM2, 2.77e-05 M; with A2780, 2.8e-05 M. For the same molecule, the concentration for a half-maximal effect (EC50) in the test on SUDHL10 [1] and in the test with SUDHL5 [4] was over 33 µM each time.

In the case of `CN(C)S(=O)(=O)N1CCN(c2ccc(OCc3nn(C)c4c3-c3cccc5c(CCCOc6cccc7ccccc67)c(C(=O)O)n(c35)CCCN(Cc3ccccc3)C4)cc2)CC1` (racemic) [Example 004, (rac)-(7-benzyl-11-({4-[4dimethylsulfamoyl)piperazin-1-yl]phenoxy}methyl)-9-methyl-1-[3-(1-naphthyloxy)propyl]4,5,6,7,8,9-hexahydropyrazolo[3′,4′:7,8][1,5]diazecino[9,10,1-hi]indole-2-carboxylic Acid], the IC50 at MCL-1 was 0.117 µM; in the test on SUDHL10 [2], 2.57e-05 M; with SUDHL10 [3] it was 2.04e-06 M; in the test with SUDHL5 [5] it was 1.47e-05 M; in the test with OPM2, 1.09e-05 M; in the test with A2780, 7.13e-06 M. Also, the EC50 was 25.8 µM in the test with SUDHL10 [1] and 12.5 µM in the test with SUDHL5 [4].

As for `Cc1nn(C)c2c1-c1cccc3c(CCCOc4cccc5c4CCCC5)c(C(=O)O)n(c13)CCCOC2` (racemic) [Example 005, (rac)-9,11-dimethyl-1-[3-(5,6,7,8-tetrahydronaphthalen-1-yloxy)propyl]-5,6,8,9-tetrahydro-4H-pyrazolo[4′,3′:8,9][1,5]oxazecino[7,6,5-hi]indole-2-carboxylic Acid], the IC50 at MCL-1 is 0.066 µM; in the test on SUDHL10 [2] it was over 3.3e-05 M; with SUDHL10 [3] it was over 3.3e-05 M; with SUDHL5 [5] it was over 3.3e-05 M; in the test on OPM2, over 3.3e-05 M; in the test on A2780, over 3.3e-05 M. The EC50 with SUDHL10 [1] and in the test on SUDHL5 [4] was over 33 µM each time.

For the molecule `Cc1ccc2cccc(OCCCc3c(C(=O)O)n4c5c(cccc35)-c3c(C)nn(C)c3COCCCC4)c2c1` (racemic) [Example 012, (rac)-1,3-dimethyl-7-{3-[(7-methyl-1-naphthyl)oxy]propyl}-1,10,11,12,13,15-hexahydropyrazolo[4′,3′:9,10][1,6]oxazacycloundecino[8,7,6-hi]indole-8-carboxylic Acid], the IC50 is 0.0274 µM against MCL-1; over 3.3e-05 M with SUDHL10 [2]; 7.15e-06 M with SUDHL10 [3]; 3.14e-05 M in the test with SUDHL5 [5]; 2.17e-05 M in the test with OPM2; 3.13e-05 M in the test on A2780. The EC50 in the test on SUDHL10 [1] and with SUDHL5 [4] was over 33 µM throughout.

For `Cc1cc(OCCCc2c(C(=O)O)n3c4c(cccc24)-c2c(C)nn(C)c2COCCC3)cc(C)c1Cl` (racemic) [Example 013, (rac)-1-[3-(4-chloro-3,5-dimethylphenoxy)propyl]-9,11-dimethyl-5,6,8,9-tetrahydro-4H-pyrazolo[4′,3′:8,9][1,5]oxazecino[7,6,5-hi]indole-2-carboxylic Acid], the IC50 against MCL-1 is 0.0345 µM; with SUDHL10 [2] it was over 3.3e-05 M; in the test with SUDHL10 [3] it was 4.83e-06 M; in the test with SUDHL5 [5], over 3.3e-05 M; in the test on OPM2, over 3.3e-05 M; in the test with A2780, 3.27e-05 M. The concentration for a half-maximal effect (EC50) in the test on SUDHL10 [1] and in the test on SUDHL5 [4] was over 33 µM each time.
